Test results reported in US8241872B2, “Microorganism producing cyclic compound” (Astellas Pharma Inc., priority 2008, dated 2012).
Non-standard residues stand in square brackets, D forms with d. Residues, ends and D or L forms follow the SMILES beside them. ξ: configuration not given here. ξOrn(N(OH)Ac) = CC(=O)N(O)CCCC(N)C(=O)O

Experiments:
Experiment in all cases: Antifungal activity, broth microdilution method
Format in all cases: cell-based
[1] = system: Candida guilliermondii FP2086
Procedure: (§1) Antifungal activities for test fungi shown in Table 15 was determined by a broth microdilution method (Hikaru Kume and Toshikazu Yamazaki, Clinical Microbiology, Vol. 21, No. 5, pp. 573-580, 1994).

[2] = system: Pseudallescheria boydii FP1987
Procedure: as §1

[3] = system: Trichophyton mentagrophytes FP2103
Procedure: as §1

[4] = system: Aspergillus fumigatus FP1305
Procedure: as §1

[5] = system: Trichosporon asahi FP2044
Procedure: as §1

[6] = system: Cryptococcus neoformans FP1739
Procedure: as §1

[7] = system: Aspergillus flavus ATCC9643
Procedure: as §1

Fusarium solani FP1930 = system: Fusarium solani FP1930
Procedure: as §1

[8] = system: Candida parapsilosis FP1980
Procedure: as §1

[9] = system: Aspergillus terreus SR0174
Procedure: as §1

Rhizopus oryzae FP1988 = system: Rhizopus oryzae FP1988
Procedure: as §1

Candida krusei FP1979 = system: Candida krusei FP1979
Procedure: as §1

[10] = system: Alternaria alternata AHU9258
Procedure: as §1

[11] = system: Trichophyton rubrum FP596
Procedure: as §1

[12] = system: Aspergillus niger ATCC6275
Procedure: as §1

Candida glabrata FP1944 = system: Candida glabrata FP1944
Procedure: as §1

In the case of `CC(=O)N(O)CCCC1NC(=O)C(CCCN(O)C(C)=O)NC(=O)C(Cc2ccccc2)NC(=O)C(CC(C)C)NC(=O)C(CC(N)=O)NC(=O)C(CCCN(O)C(C)=O)NC1=O` (stereo not shown) [compound B] (cyclo([ξOrn(N(OH)Ac)][ξOrn(N(OH)Ac)][ξOrn(N(OH)Ac)]NLF); configuration not given here), the “MEC (minimum effective concentration)” value [1] is reported as 0.31 µg/mL, the “MEC (minimum effective concentration)” value [2] is reported as 0.2 µg/mL and the “MEC (minimum effective concentration)” value [3] is reported as 0.78 µg/mL. For the same compound, the “MEC (minimum effective concentration)” value [4] was 0.31 µg/mL, the “MEC (minimum effective concentration)” value [5] was 0.2 µg/mL and the “MEC (minimum effective concentration)” value [6] was 0.2 µg/mL. For the same compound, the “MEC (minimum effective concentration)” value [7] was 0.2 µg/mL, the “MEC (minimum effective concentration)” value (Fusarium solani FP1930) was 0.2 µg/mL and the “MEC (minimum effective concentration)” value [8] was 0.39 µg/mL. The “MEC (minimum effective concentration)” value [9] was 0.31 µg/mL, the “MEC (minimum effective concentration)” value (Rhizopus oryzae FP1988) was 25 µg/mL and the “MEC (minimum effective concentration)” value (Candida krusei FP1979) was 0.31 µg/mL. For the same compound, the “MEC (minimum effective concentration)” value [10] was 0.1 µg/mL, the “MEC (minimum effective concentration)” value [11] was 1.25 µg/mL and the “MEC (minimum effective concentration)” value [12] was 0.78 µg/mL. For the same compound, the “MEC (minimum effective concentration)” value (Candida glabrata FP1944) was 0.31 µg/mL.
